Results from US5686486A, “4-hydroxy-benzopyran-2-ones and 4-hydroxy-cycloalkyl[b]pyran-2-ones useful to treat retroviral infections” (priority 1995, dated 1997).
Structures can show the parent of a compound that is named as a salt.

Molecular target: HIV-1 protease (Human immunodeficiency virus type 1 group M subtype B, UniProt P04585)
Assay: biochemical
Conditions: for inhibition at 1 µM: read-out: HIV-1 Protease % Inhib, dose 1.000 uM; for inhibition at 10 µM: read-out: HIV-1 Protease % Inhib, dose 10.000 uM; for inhibition at 100 µM: read-out: HIV-1 Protease % Inhib, dose 100.000 uM; for IC50: HIV-1 Protease IC50; for HIV-1 Protease % Inhib: dose 100.000 uM
Description: The HIV protease screening assay is based on fluorescently labeled substrate which can be resolved from nonlabeled cleavage product using special beads coated with streptavidin. The substrate is biotinylated at the amino terminal arginine and fluorescently labeled with fluorescein isothiocynate (FITC) at the carboxyl terminal lysine. This assay has been employed to detect novel, nonpeptidic inhibitors of HIV-1 protease. Substrate (20 μl of 0.2 μM), sample (10 μl of desired concentration), and enzyme (10 μl of 0.1 μM) are added to a 96 well pandex plate. The assay is run in 0.1M sodium acetate buffer at pH 5.5 in the presence of 1.0M sodium chloride and 0.05% NP-40 with incubated in the dark for one hour at room temperature. Strepavidin coated polystyrene beads {40 μl of 0.1% (w/v)} are added and the plate is incubated in the dark for an additional half hour. The labeled cleavage product is separated from the unreacted substrate via filtration and is read on the Idexx screen machine. The data are analyzed by appropriate computer algorithms to ascertain percent inhibition values.

For CC(c1cccc(C(=O)NCC(=O)NCc2nc3ccccc3[nH]2)c1)c1c(O)c2ccccc2oc1=O (stereo not shown) [Example 33, Coumarin, 3-[1-[3-[[[[[[(2-benzimidazolyl)methyl]amino]carbonyl]methyl]amino]carbonyl]phenyl]ethyl]4-hydroxy-], the inhibition at 1 µM was under 10%, the inhibition at 10 µM was 11.2% and the inhibition at 100 µM was 77.4%.
For O=c1oc2ccccc2c(O)c1C1CCCc2ccccc21 (stereo not shown) [Example 34, 4-hydroxy-3-[1-(1,2,3,4-tetrahydro)naphthyl]-coumarin], the IC50 was 3.6 µM, the inhibition at 1 µM was under 10% and the inhibition at 10 µM was 50.3%. For the same molecule, the inhibition at 100 µM was 91.1%.
O=c1oc2ccccc2c(O)c1C1CCc2ccccc21 (stereo not shown) [Example 35, 4-hydroxy-3-[1-indanyl]-coumarin] gave an IC50 of 6.8 µM, an inhibition at 1 µM of under 10% and an inhibition at 10 µM of 19.6%. It also gave an inhibition at 100 µM of 92.6%.
In the case of CCC(c1ccc(F)cc1)c1c(O)c2ccccc2oc1=O (stereo not drawn) [Example 36, Coumarin, 3-(α-ethyl-p-fluorobenzyl)4-hydroxy-], the inhibition at 1 µM is reported as under 10%, the inhibition at 10 µM is reported as 16.9% and the inhibition at 100 µM is reported as 81.6%.
With CCCC(c1ccccc1)c1c(O)c2ccc(OC)cc2oc1=O (stereo not drawn) [Example 37, Coumarin, 7-methoxy-3-(α-propylbenzyl)4-hydroxy-] the IC50 was 7 µM, the inhibition at 1 µM was under 10% and the inhibition at 10 µM was 59.5%. It also gave an inhibition at 100 µM of 103%.
For COc1ccc2c(O)c(C(c3ccccc3)C3CC3)c(=O)oc2c1 (stereo not shown) [Example 38, 3-cyclopropylphenylmethyl-4-hydroxy-7-methoxy coumarin], the IC50 was 2.8 µM, the inhibition at 1 µM was 18.6% and the inhibition at 10 µM was 83.2%. For the same molecule, the inhibition at 100 µM was 93.4%.
CC(C)(c1ccccc1)c1c(O)c2ccccc2oc1=O [Example 39, 3-(α,α-dimethylbenzyl)4-hydroxy coumarin] gave an IC50 of 5 µM, an inhibition at 1 µM of 13.8% and an inhibition at 10 µM of 69.6%. It also gave an inhibition at 100 µM of 82%.
In the case of CCC(c1cccc(N)c1)c1c(O)c2ccccc2oc1=O (stereo not shown) [Example 40, Coumarin, 3-[1-(3-aminophenyl)propyl]4-hydroxy-, monohydrochloride-], the inhibition at 1 µM is reported as under 10%, the inhibition at 10 µM is reported as under 10% and the inhibition at 100 µM is reported as 51.3%.
Molecule CCC(c1cccc(NC(=O)COc2cccc3ccccc23)c1)c1c(O)c2ccccc2oc1=O (stereo not shown) [Example 41, Coumarin, 4-hydroxy-3-[1-[3-[[(1-naphthoxymethyl)carbonyl]amino]phenyl]propyl]-] has an inhibition at 1 µM of under 10%, an inhibition at 10 µM of 32.6% and an inhibition at 100 µM of 80.6%.
For CCC(c1cccc(NC(=O)C(NC(=O)OC(C)(C)C)C(C)C)c1)c1c(O)c2ccccc2oc1=O (stereo not shown) [Example 42, Carbamic acid, [1-[[[3-[1-(4-hydroxy-2-oxo-2H-1-benzopyran-3-yl)propyl]phenyl]amino]carbonyl]-2-methylpropyl]-, 1,1-dimethylethyl ester], the IC50 was 9.9 µM, the “HIV-1 Protease % Inhib” value was 102.8% and the inhibition at 1 µM was 11.5%. It also gave an inhibition at 10 µM of 75.2% and an inhibition at 100 µM of 112%.
Work on CCC(c1cccc(NC(=O)CNC(=O)OC(C)(C)C)c1)c1c(O)c2ccccc2oc1=O (stereo not shown) [Example 43, Coumarin, 4-hydroxy-3-[1-[3-[[[[(1,1-dimethylethoxycarbonyl)amino]methyl]carbonyl]amino]phenyl]propyl]-] yielded an IC50 of 2.1 µM, an inhibition at 1 µM of 28.4% and an inhibition at 10 µM of 103%. It also gave an inhibition at 100 µM of 122%.
With CCCCC(=O)Nc1cccc(C(CC)c2c(O)c3ccccc3oc2=O)c1 (stereo not shown) [Example 44, Coumarin, 4-hydroxy-3-[1-[3-[(1-oxopentyl)amino]phenyl]propyl]-] the inhibition at 1 µM was under 10%, the inhibition at 10 µM was under 10% and the inhibition at 100 µM was 55.6%.
In the case of CCC(c1cccc(NC(=O)c2ccccn2)c1)c1c(O)c2ccccc2oc1=O (stereo not shown) [Example 45, Coumarin, 4-hydroxy-3-[1-[3-[[(2-pyridinyl)carbonyl]amino]phenyl]propyl]-], the inhibition at 1 µM is reported as under 10%, the inhibition at 10 µM is reported as 28.5% and the inhibition at 100 µM is reported as 90.9%.
In the case of CCC(c1cccc(NC(=O)CN)c1)c1c(O)c2ccccc2oc1=O (stereo not shown) [Example 46, Coumarin, 3-[1-[3-[[(aminomethyl)carbonyl]amino]phenyl]propyl]4-hydroxy-, trifluoroacetate (salt)], the IC50 is reported as 4.2 µM, the “HIV-1 Protease % Inhib” value is reported as 107% and the inhibition at 1 µM is reported as 22.1%. For the same molecule, the inhibition at 10 µM was 96.3% and the inhibition at 100 µM was 116%.
Molecule CCC(c1cccc(NC(=O)CC(C)(C)NC(=O)OC(C)(C)C)c1)c1c(O)c2ccccc2oc1=O (stereo not shown) [Example 47, Coumarin, 4-hydroxy-3-[1-[3-[[1-oxo-3-methyl-3-[(1,1-dimethylethoxycarbonyl)amino]butyl]amino]phenyl]propyl]-] has an inhibition at 1 µM of under 10%, an inhibition at 10 µM of under 10% and an inhibition at 100 µM of 53%.
Molecule CCC(c1cccc(NC(=O)CC(C)(C)N)c1)c1c(O)c2ccccc2oc1=O (stereo not shown) [Example 48, Coumarin, 3-[1-[3-[(3-amino-3-methyl-1-oxobutyl)amino]phenyl]propyl]-4-hydroxy-, trifluoroacetate (salt)] has an inhibition at 1 µM of under 10%, an inhibition at 10 µM of under 10% and an inhibition at 100 µM of 43.3%.
For CCC(CC(=O)Nc1cccc(C(CC)c2c(O)c3ccccc3oc2=O)c1)c1ccccc1 (stereo not shown) [Example 49, Coumarin, 4-hydroxy-3-[1-[3-[(1-oxo-3-phenylpentyl)amino]phenyl]propyl]-], the inhibition at 1 µM was under 10%, the inhibition at 10 µM was 21.9% and the inhibition at 100 µM was 60.3%.
In the case of CCC(c1cccc(NC(=O)CCCNC(=O)OC(C)(C)C)c1)c1c(O)c2ccccc2oc1=O (stereo not shown) [Example 50, Coumarin, 4-hydroxy-3-[1-[3-[[4-[(1,1-dimethylethoxycarbonyl)amino]-1-oxobutyl]amino]phenyl]propyl]-], the IC50 is reported as 2.3 µM, the inhibition at 1 µM is reported as 33.5% and the inhibition at 10 µM is reported as 80.3%. The inhibition at 100 µM was 95.5%.
CCC(c1cccc(NC(=O)CC[C@H](NC(=O)OC(C)(C)C)C(=O)OC(C)(C)C)c1)c1c(O)c2ccccc2oc1=O (stereo partly drawn) [Example 51, L-Glutamine, N2-[(1,1-dimethylethoxy)carbonyl]-N-[3-[1-(4-hydroxy-2-oxo-2H-1-benzopyran-3-yl)propyl]phenyl]-, 1,1-dimethylethyl ester] gave an inhibition at 1 µM of under 10%, an inhibition at 10 µM of under 10% and an inhibition at 100 µM of 39.6%.
Work on CCC(c1cccc(NC(=O)CC[C@H](N)C(=O)O)c1)c1c(O)c2ccccc2oc1=O (stereo partly drawn) [Example 52, L-Glutamine, N-[3-[1-(4-hydroxy-2-oxo-2H-1-benzopyran-3-yl)propyl]phenyl]-, mono(trifluoroacetate) (salt)] yielded an IC50 of 3.1 µM, an inhibition at 1 µM of 26.8% and an inhibition at 10 µM of 81.5%. It also gave an inhibition at 100 µM of 120%.
In the case of CCC(c1cccc(NC(=O)CCCc2ccccc2)c1)c1c(O)c2ccccc2oc1=O (stereo not shown) [Example 53, Coumarin, 4-hydroxy-3-[1-[3-[(i-oxo-4-phenylbutyl)amino]phenyl]propyl]-], the inhibition at 1 µM is reported as under 10%, the inhibition at 10 µM is reported as under 10% and the inhibition at 100 µM is reported as 71.8%.
Work on CCC(c1cccc(NC(=O)CCCCc2ccccc2)c1)c1c(O)c2ccccc2oc1=O (stereo not shown) [Example 54, Coumarin, 4-hydroxy-3-[1-[3-[(1-oxo-5-phenylpentyl)amino]phenyl]propyl]-] yielded an inhibition at 1 µM of under 10%.
In the case of CCC(c1cccc(NC(=O)Cc2ccccc2)c1)c1c(O)c2ccccc2oc1=O (stereo not shown) [Example 55, Coumarin, 4-hydroxy-3-[1-[3-[[(phenylmethyl)carbonyl]amino]phenyl]propyl]-], the inhibition at 1 µM is reported as under 10%, the inhibition at 10 µM is reported as under 10% and the inhibition at 100 µM is reported as 72%.
In the case of CCC(c1cccc(NC(=O)CCC2CCCCC2)c1)c1c(O)c2ccccc2oc1=O (stereo not shown) [Example 56, Coumarin, 3-[1-[3-[(3-cyclohexyl-1-oxopropyl)amino]phenyl]propyl]-4-hydroxy-], the inhibition at 1 µM is reported as under 10%, the inhibition at 10 µM is reported as under 10% and the inhibition at 100 µM is reported as 49.5%.
CCC(c1cccc(NC(=O)CCc2ccccc2)c1)c1c(O)c2ccc(OC)cc2oc1=O (stereo not shown) [Example 57, Coumarin, 4-hydroxy-7-methoxy-3-[1-[3-[(1-oxo-3-phenylpropyl)amino]phenyl]propyl]-] gave an IC50 of 2.8 µM, an inhibition at 1 µM of 17.6% and an inhibition at 10 µM of 94.4%. The inhibition at 100 µM was 99.3%.
With CCC(c1cccc(NC(=O)CCNC(=O)OC(C)(C)C)c1)c1c(O)c2ccc(OC)cc2oc1=O (stereo not shown) [Example 58, Coumarin, 4-hydroxy-3-[1-[3-[[3-[(1,1-dimethylethoxycarbonyl)amino]-1-oxopropyl]amino]phenyl]propyl]-7-methoxy-] the IC50 was 1.2 µM, the inhibition at 1 µM was 36.3% and the inhibition at 10 µM was 90.2%. The inhibition at 100 µM was 108%.
CCC(c1cccc(NC(=O)C2CCCN2C(=O)OC(C)(C)C)c1)c1c(O)c2ccccc2oc1=O (stereo not shown) [Example 59, 1-Pyrrolidinecarboxylic acid, 2-[[[3-[1-(4-hydroxy-2-oxo-2H-1-benzopyran-3-yl)propyl]phenyl]amino]carbonyl]-, 1,1-dimethylethyl ester] showed an inhibition at 1 µM of under 10%, an inhibition at 10 µM of 21.5% and an inhibition at 100 µM of 82.8%.
CCC(c1cccc(NC(=O)C(C)NC(=O)OC(C)(C)C)c1)c1c(O)c2ccccc2oc1=O (stereo not shown) [Example 60, Carbamic acid, [2-[[3-[1-(4-hydroxy-2-oxo-2H-1-benzopyran-3-yl)propyl]phenyl]amino]-1-methyl-2-oxoethyl]-, 1,1-dimethylethyl ester] gave an IC50 of 1.1 µM, an inhibition at 1 µM of 31.5% and an inhibition at 10 µM of 90.8%. The inhibition at 100 µM was 117%.
